# Data: patent US20090053168A1, “TREATMENTS OF B-CELL PROLIFERATIVE DISORDERS” (priority 2007, published 2009)
# Read-outs that look alike come from different tables or passages of the source.
# Columns and labels:
# MM.1S cells [1] = conditions: MM.1S
# MM.1R cells = test: Anti-proliferation assay (ATPLite, 72 h), MM.1R; assay type: cell-based
# RPMI-8226 cells = test: Anti-proliferation assay (ATPLite, 72 h), RPMI-8226; assay type: cell-based
# H929 cells = test: Anti-proliferation assay (ATPLite, 72 h), H929; assay type: cell-based; conditions: for Synergy score with dexamethasone, H929: combination with dexamethasone, Loewe-based Synergy Score, 72 h
# MM.1S cells [2] = test: Anti-proliferation assay (ATPLite, 72 h), MM.1S; conditions: for Synergy score with dexamethasone, MM.1S: combination with dexamethasone, Loewe-based Synergy Score
# [3] = in combination with HE-NECA, MM.1R
# [4] = combination with dexamethasone, Loewe-based Synergy Score, 72 h
# [5] = Homo sapiens, MM1.S, read-out: percent inhibition of cell proliferation
# [6] = Homo sapiens, MM1.S, 72 h, read-out: percent inhibition of cell proliferation
smiles,measurement,setting,value
Nc1nc2c(cnn2CCc2ccccc2)c2nc(-c3ccco3)nn12 [SCH 58261],blocking of chloro-IB-MECA antiproliferative activity,"MM.1S cells [1]; SCH 58261 78 nM, 72 hours, 2-fold dilutions of chloro-IB-MECA",> 50%
same,blocking of chloro-IB-MECA antiproliferative activity,MM.1S cells [1]; antagonist concentration increased 2-fold,> 70%
O=c1[nH]c(=O)n([C@H]2C[C@H](O)[C@@H](CO)O2)cc1C(F)(F)F [Trifluridine],synergy score,MM.1R cells; [3],1.94
"COc1ccc(Cc2nn3c([C@@H](CCCc4ccccc4)[C@@H](C)O)nc(C)c3c(=O)[nH]2)cc1OC [BAY 60-7550, 2-(3,4-dimethoxybenzyl)-7-[(1R)-1-[(1R)-1-hydroxyethyl]-4-phenylbutyl]-5-methylimidazo[5,1-f][1,2,4]triazin-4(3H)-one]","Synergy score with dexamethasone, RPMI-8226",RPMI-8226 cells; [4],1.37
same,"Synergy score with dexamethasone, H929",H929 cells,0.822
same,inhibition at 0.437 µM,MM.1S cells [2]; [5],2.2%
same,inhibition at 1.31 µM,MM.1S cells [2]; [5],1.7%
same,inhibition at 3.93 µM,MM.1S cells [2]; [5],3%
same,inhibition at 35.4 µM,MM.1S cells [2]; [5],44%
same,"Synergy score with dexamethasone, MM.1S",MM.1S cells [2]; 72 h,1.44
"CN(C(=O)CCCOc1ccc2[nH]c(=O)ccc2c1)C1CCCCC1 [Cilostamide, N-cyclohexyl-4-((1,2-dihydro-2-oxo-6-quinolinyl)oxy)-N-methyl-butanamide]","Synergy score with dexamethasone, RPMI-8226",RPMI-8226 cells; [4],1.42
same,"Synergy score with dexamethasone, H929",H929 cells,0.982
same,inhibition at 0.368 µM,MM.1S cells [2]; [5],0.46%
same,inhibition at 1.1 µM,MM.1S cells [2]; [5],2.4%
same,inhibition at 3.31 µM,MM.1S cells [2]; [5],-2%
same,inhibition at 9.93 µM,MM.1S cells [2]; [5],4.2%
same,inhibition at 29.8 µM,MM.1S cells [2]; [5],33%
same,"Synergy score with dexamethasone, MM.1S",MM.1S cells [2]; 72 h,1.34
O=C1C=C2C(=CCOC2O)O1 (stereo not shown) [Patulin],synergy score,MM.1R cells; [3],1.73
CN1C[C@H](C(=O)N[C@]2(C)O[C@@]3(O)[C@@H]4CCCN4C(=O)[C@H](Cc4ccccc4)N3C2=O)C[C@@H]2c3cccc4[nH]cc(c34)C[C@H]21 [Dihydroergotamine],synergy score,MM.1R cells; [3],2.56
"CCCCCC[C@@H]([C@@H](C)O)n1cnc2c(N)ncnc21 (racemic) [EHNA, erythro-9-(2-hydroxy-3-nonyl)adenine]","Synergy score with dexamethasone, RPMI-8226",RPMI-8226 cells,1.14
CC(C)[C@]12O[C@H]1[C@@H]1O[C@]13[C@]1(O[C@H]1C[C@H]1C4=C(CC[C@@]13C)C(=O)OC4)[C@@H]2O [Triptolide],synergy score,MM.1R cells; [3],2.12
CCCCc1oc2ccccc2c1C(=O)c1cc(I)c(OCCN(CC)CC)c(I)c1 [Amiodarone],synergy score,MM.1R cells; [3],0.67
"OC[C@H]1O[C@@H](n2cnc3c(NC4CCCC4)nc(Cl)nc32)[C@H](O)[C@@H]1O [CCPA, 2-chloro-N^6-cyclopentyladenosine]","Synergy score with dexamethasone, RPMI-8226",RPMI-8226 cells; [4],5.04
same,inhibition at 0.0625 µM,MM.1S cells [2]; [6],2.4%
same,inhibition at 0.187 µM,MM.1S cells [2]; [6],21%
same,inhibition at 0.562 µM,MM.1S cells [2]; [6],15%
same,inhibition at 1.69 µM,MM.1S cells [2]; [6],38%
same,inhibition at 5.06 µM,MM.1S cells [2]; [6],50%
same,activity and synergy in antiproliferation assays,"MM.1S cells [2]; RPMI-8226, H929, MM.1S and MM.1R MM cell lines",active and synergistic
same,"Synergy score with dexamethasone, MM.1S",MM.1S cells [2]; 72 h,5.15
C[C@@H]1C[C@H]2O[C@@H]2/C=C\C=C\C(=O)Cc2c(Cl)c(O)cc(O)c2C(=O)O1 [Monordon],synergy score,MM.1R cells,1.7
C#C[C@]1(O)CC[C@H]2[C@@H]3CCC4=CC(=O)CCC4=C3C=C[C@@]21CC [Gestrinone],synergy score,MM.1R cells,1.19
"COc1ccc(Cc2nccc3cc(OC)c(OC)cc23)cc1OC [Papaverine, 1-[(3.4-dimethoxyphenyl)-methyl]-6,7-dimethoxyisoquinolone]","Synergy score with dexamethasone, RPMI-8226",RPMI-8226 cells; [4],3.49
same,"Synergy score with dexamethasone, H929",H929 cells,3.05
same,"Synergy score with dexamethasone, MM.1S",MM.1S cells [2]; 72 h,2.99
COc1cccc2c1C(=O)c1c(O)c3c(c(O)c1C2=O)C[C@@](O)(C(=O)CO)C[C@@H]3O[C@H]1C[C@H](N)[C@@H](O)[C@H](C)O1 [Epirubicin],synergy score,"RPMI-8226 cells; in combination with ADAC, RPMI-8226",1.14
same,synergy score,"H929 cells; in combination with ADAC, H929",0.33
same,synergy score,"MM.1R cells; in combination with ADAC, MM.1R",1.42
"COc1ccc(C2CNC(=O)C2)cc1OC1CCCC1 (stereo not shown) [Rolipram, 4-(3-cyclopentyloxy-4-methoxyphenyl)-2-pyrrolidone]","Synergy score with dexamethasone, RPMI-8226",RPMI-8226 cells; [4],1.43
same,"Synergy score with dexamethasone, H929",H929 cells,0.0927
same,"Synergy score with dexamethasone, MM.1S",MM.1S cells [2]; 72 h,0.203
O=c1cc(N2CCOCC2)oc2c(-c3ccccc3)cccc12 [LY 294002],synergy score,MM.1R cells; [3],0.83
